Consider 17 molecules from patent publication US8653285B2 (Nippon Zoki Pharmaceutical Co., Ltd., priority 2008, dated 2014).

Counter-ions that a name gives are not always drawn. Like-named read-outs stand apart in the source and are kept apart here.

Assay [1] deals with human histamine H1 receptor (Homo sapiens, UniProt P35367). Kind of assay: In vitro human histamine H1 receptor binding experiment ([3H]pyrilamine, HEK293A cells stably expressing the receptor). The settings on record: [3H]pyrilamine 3 nmol/L, room temperature 60 minutes. The method, then: Recombinant human histamine H1 receptor plasmid (prepared by Invitrogen) was transfected to HEK293A cells with Lipofectamine 2000 (Invitrogen). Cells stably expressing human histamine H1 receptor were screened with Geneticin (Invitrogen). The cells were continued to be cultured using a Dulbecco's Modified Eagle Medium containing 10% fetal bovine serum, 0.1 mmol/L MEM Non-Essential Amino Acids Solution, 2 mmol/L L-glutamine and 0.7 mg/mL Geneticin in a 5% CO2 incubator at 37° C. The cells stably expressing human histamine H1 receptor were prepared using 50 mmol/L Tris-HCl (pH 7.5) (hereinafter referred to as buffer) containing 0.1% bovine serum albumin, so as to have a concentration of 3×10^6 cells/mL, to give a cell sample preparation. Fifty microliters of the buffer, 50 μL of a test substance solution at various concentrations, and 50 μL of [^3H]pyrilamine solution (final concentration: 3 nmol/L) were added to each of the wells on the 96-well plate, and stirred, and 100 μL of the cell sample preparation was then added thereto (at a concentration of 3×10^5 cells/well) to initiate the reaction.
Chain of human histamine H1 receptor (P35367 whole entry): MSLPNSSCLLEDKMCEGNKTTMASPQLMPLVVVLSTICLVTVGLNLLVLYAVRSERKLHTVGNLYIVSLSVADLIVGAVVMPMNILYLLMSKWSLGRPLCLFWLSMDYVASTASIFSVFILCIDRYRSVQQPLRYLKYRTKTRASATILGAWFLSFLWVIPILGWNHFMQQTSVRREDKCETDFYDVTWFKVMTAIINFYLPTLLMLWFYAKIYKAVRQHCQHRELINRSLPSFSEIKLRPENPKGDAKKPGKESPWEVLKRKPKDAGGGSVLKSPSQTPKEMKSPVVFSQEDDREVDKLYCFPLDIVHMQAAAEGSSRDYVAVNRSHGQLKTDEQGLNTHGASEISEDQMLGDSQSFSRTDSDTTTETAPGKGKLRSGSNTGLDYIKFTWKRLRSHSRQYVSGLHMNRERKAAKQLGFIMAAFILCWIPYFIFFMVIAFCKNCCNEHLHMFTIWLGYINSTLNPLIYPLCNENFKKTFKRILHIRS
The cells were incubated at room temperature for 60 minutes, and then filtered on UniFilter GF/C plate (Packard) immersed in 0.5% polyethyleneimine using a cell harvester (IH-110, INNOTECH CORPORATION), to stop the reaction, and the plate was washed with the buffer. The plate after washing was sufficiently dried, and 20 μL of a scintillator (MaxiLight, manufactured by Hidex) was added thereto, and count per minute (cpm) was measured with a multi-labeled microplate reader (Plate Chameleo II, Hidex). The nonspecific binding was cpm in a case where 30 μmol/L pyrilamine was added. The experiments were carried out at n=3, and at least repeated 3 times.

The test system of assay [2] is histamine-induced vascular hyperpermeability. Kind of assay: Rat histamine-induced vascular hyperpermeability reaction (in vivo antihistamine action). The settings on record: SD male rat, oral administration, histamine injected intracutaneously 1 hour after administration, leaked Evans Blue. The method, then: An SD male rat (SPF) of 180 g in weight was previously fed for one week or more by allowing the rat to take a solid feed and tap water ad libitum, under the environment setting of a temperature of 22° C., humidity of 55% and an artificial illumination of 12 hours a day (light phase 8 am to 8 pm), and the rat was fasted overnight to be used for the experiment. Histamine.dihydrochloride (hereinafter referred to as histamine) and Evans Blue were used by dissolving each in physiological saline upon use. A substance to be tested was dissolved in water for injection or suspended in 0.5% carboxymethyl cellulose sodium, and the rat was orally administered with the solution or suspension (dose volume: 5 mL/kg body weight). After 1 hour from the administration, the physiological saline and the histamine solution were each intracutaneously injected to two locations (20 μg/0.05 ml/location) each on a back part of the rat of which hair was sheared with an electric clipper while anesthetizing with an ether. A 0.5% Evans Blue-containing physiological saline was injected into the tail vein of the rat (1 mL/200 g body weight) immediately before the intracutaneous injection of the histamine.
After 30 minutes, the animal was decapitated, and exsanguinated, and the skin was removed to measure an amount of leaked pigment in the blue-stained portion. The measurement of the amount of leaked pigment was carried out as follows. Skins of the pigment leaking site were cut out at two locations, 1 mL of a 2 mol/L aqueous potassium hydroxide solution was added thereto in a test tube, and the test tube was allowed to stand overnight at 37° C. to dissolve. Thereafter, 6 mL of a 1:3 mixed solution of 0.67 mol/L phosphoric acid and acetone was added to the solution, and the mixture was vigorously shaken for 10 minutes. Thereafter, the mixture was filtered, and the absorbance of the filtrate at 620 nm was measured. The absorbance obtained from the two locations of the sites injected with physiological saline, as blank value, was used for a compensation. The amount of leaked pigment was calculated from the calibration curve of Evans Blue at 620 nm.

Another assay concerns the target T1, cerebral H1 receptor (Mus musculus, UniProt P70174).
T1 construct: The excised brain tissue was homogenized with Polytron (Kinematica); from tissue; host or cells: ICR mouse brain (entire brain except cerebellum and medulla oblongata), homogenate
Kind of assay: Murine cerebral H1 receptor occupying content (ex vivo, 3H-pyrilamine binding in brain homogenate after oral administration). The method, then:
A 6-week-old ICR male mouse was previously fed for one week or more by allowing the mouse to take a solid feed and tap water ad libitum, under the environment setting of a temperature of 22° C., humidity of 55% and an artificial illumination of 12 hours a day, and the mouse was fasted overnight to be used for the experiment. A substance to be tested was dissolved with water for injection or suspended in 0.5% carboxymethyl cellulose solution, and the solution or suspension was orally administered to the mouse (dose volume: 0.1 mL/10 g body weight). After 1 hour from the oral administration, the mouse was decapitated, and the entire brain, except for cerebellum and medulla oblongatae, was rapidly excised. The excised brain tissue was homogenized with Polytron (Kinematica) in an ice-cooled 50 mmol/L phosphate buffered saline (pH 7.4, 100 mg/1.9 mL).
To a test tube for reaction (TPX-Tube) were added 180 μL of the brain homogenate, and 10 μL of ^3H-pyrilamine solution (final concentration: 2 nmol/L) and 10 μL of a non-labeled pyrilamine solution (final concentration: 200 μmol/L) or a 50 mmol/L phosphate buffered saline, and the mixture was incubated at room temperature for 45 minutes, and 2.0 mL of an ice-cooled, 50 mmol/L phosphate buffered saline was then added thereto to stop the reaction. The reaction mixture was filtered with a GF/B filter ([…]), and the filtrate was placed in a vial and dried overnight at 60 degrees. After drying, 10 mL of a scintillator (AL-1, toluene-based, DOJINDO LABORATORIES) was added to the product, and the disintegration per minute (dpm) was measured with a liquid scintillation counter (Packard, U.S.A., TRI-CARB 2700TR) (5 minutes/vial).

[3] abbreviates: ICR male mouse, oral administration, brain excised after 1 hour, larger ID50 = lower brain transfer, read-out: ID50 (the source's name).

T1 sequence (P70174 whole entry): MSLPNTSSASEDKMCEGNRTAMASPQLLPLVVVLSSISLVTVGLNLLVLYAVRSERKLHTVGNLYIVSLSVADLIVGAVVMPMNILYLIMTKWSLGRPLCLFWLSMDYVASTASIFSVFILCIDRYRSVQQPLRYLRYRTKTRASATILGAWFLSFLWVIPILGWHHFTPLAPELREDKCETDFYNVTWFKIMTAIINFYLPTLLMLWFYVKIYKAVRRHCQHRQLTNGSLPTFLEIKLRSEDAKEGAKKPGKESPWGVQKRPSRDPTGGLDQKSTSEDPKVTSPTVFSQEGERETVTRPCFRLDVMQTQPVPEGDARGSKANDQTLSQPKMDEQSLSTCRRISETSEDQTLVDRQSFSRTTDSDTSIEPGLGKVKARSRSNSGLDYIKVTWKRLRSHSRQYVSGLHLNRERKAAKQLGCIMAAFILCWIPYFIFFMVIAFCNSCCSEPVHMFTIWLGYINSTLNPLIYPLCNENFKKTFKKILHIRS

The molecule `O=C(O)Cc1ccc2c(c1)/C(=C\CCN1CCCC1)c1sccc1CO2` [Compound 26, (E)-{4-[3-(Pyrrolidin-1-yl)propylidene]-4,10-dihydro-9-oxa-3-thiabenzo[f]azulen-6-yl}acetic acid] displayed an IC50 in assay [1] of 19.2 nM. Also, the ED50 in assay [2] (read-out: ED50) came out at 0.156 mg/kg; at cerebral H1 receptor (setting [3]), 80.9 mg/kg.
Molecule `CCN(C)CC/C=C1\c2cc(CC(=O)O)ccc2OCc2ccsc21` [Compound 30] returned an IC50 in assay [1] of 57.6 nM. In addition, the ED50 in assay [2] (read-out: ED50) was about 0.3 mg/kg; at cerebral H1 receptor (mouse, po, 1 h, read-out: ID50), 95 mg/kg.
In the case of `CN(C)CC/C=C1/c2cc(CC(=O)O)ccc2OCc2sccc21` [Compound 28, (Z)-[4-(3-Dimethylaminopropylidene)-4,10-dihydro-9-oxa-1-thiabenzo[f]azulen-6-yl]acetic acid], in assay [1], the IC50 came out at 43.4 nM. In addition, the ED50 in assay [2] (read-out: ED50) was under 0.1 mg/kg; at cerebral H1 receptor (setting [3]), 5.85 mg/kg.
For `O=C(O)CCc1ccc2c(c1)/C(=C\CCN1CCCC1)c1ccsc1CO2` [Compound 58, (E)-3-{4-[3-(Pyrrolidin-1-yl)propylidene]-4,10-dihydro-9-oxa-1-thiabenzo[f]azulen-6-yl}propionic acid] the same measures were 23 nM, about 0.1 mg/kg and 110 mg/kg.
On the same counts, the results for `CCOC(=O)C(C)(C)c1cc2c(s1)C(=O)Cc1ccccc1C2=CCCN(C)C` [Compound 24, Ethyl (E,Z)-2-[4-(3-dimethylaminopropylidene)-10-oxo-9,10-dihydro-4H-1-thiabenzo[f]azulen-2-yl]-2-methylpropionate hydrochloride] are 13.2 nM, about 1 mg/kg and 174 mg/kg.
As for `CN(C)CC/C=C1\c2cc(CC(=O)O)ccc2OCc2ccsc21` [Compound 19, (E)-[4-(3-Dimethylaminopropylidene)-4,10-dihydro-9-oxa-3-thiabenzo[f]azulen-6-yl]acetic acid], the IC50 in assay [1] was 56.9 nM. Besides, the ED50 in assay [2] (read-out: ED50) is 0.24 mg/kg; at cerebral H1 receptor (setting [3]) it was 6.08 mg/kg.
In assay [1], `CN(C)CC/C=C1/c2cc(CCC(=O)O)ccc2OCc2sccc21.Cl` [Compound 57, (Z)-3-[4-(3-Dimethylaminopropylidene)-4,10-dihydro-9-oxa-1-thiabenzo[f]azulen-6-yl]propionic acid hydrochloride] gave an IC50 of 56.3 nM. Also, the ED50 is about 0.1 mg/kg in assay [2] (read-out: ED50) and over 80 mg/kg at cerebral H1 receptor (mouse, po, 1 h, read-out: ID50).
For `O=C(O)Cc1ccc2c(c1)/C(=C/CCN1CCCC1)c1sccc1CO2` [Compound 27, (Z)-{4-[3-(Pyrrolidin-1-yl)propylidene]-4,10-dihydro-9-oxa-3-thiabenzo[f]azulen-6-yl}acetic acid], the IC50 in assay [1] turned out to be 70.2 nM. Moreover, the ED50 in assay [2] (read-out: ED50) was 0.226 mg/kg; at cerebral H1 receptor (setting [3]), over 200 mg/kg.
As for `CNCC/C=C1\c2cc(C(C)(C)C(=O)O)ccc2OCc2ccsc21` [Compound 25, (E)-{2-Methyl-2-[4-(3-methylaminopropylidene)-4,10-dihydro-9-oxa-3-thiabenzo [f]azulen-6-yl]}propionic acid], the ED50 in assay [2] was determined as 5.70 mg/kg. Also, the ID50 at cerebral H1 receptor (ICR male mouse, oral administration, brain excised after 1 hour, larger ID50 = lower brain transfer) is listed as over 200 mg/kg.
For the molecule `O=C(O)Cc1ccc2c(c1)/C(=C\CCN1CCCCC1)c1sccc1CO2` [Compound 34, (E)-{4-[3-(Piperidin-1-yl)propylidene]-4,10-dihydro-9-oxa-3-thiabenzo[f]azulen-6-yl}acetic Acid], in assay [1], the IC50 came out at 31.4 nM. The ED50 in assay [2] (read-out: ED50) was about 0.3 mg/kg; at cerebral H1 receptor (setting [3]), 34.8 mg/kg.
On the same counts, the results for `CN(C)CCC=C1c2cc(C(C)(C)C(=O)O)ccc2OCc2ccsc21` [Compound 22, (E,Z)-2-[4-(3-Dimethylaminopropylidene)-4,10-dihydro-9-oxa-3-thiabenzo[f]azulen-6-yl]-2-methylpropionic acid] are 60 nM, about 1 mg/kg and 18.7 mg/kg.
Regarding `CN(C)CC/C=C1/c2cc(CC(=O)O)ccc2OCc2ccsc21` [Compound 20, (Z)-[4-(3-Dimethylaminopropylidene)-4,10-dihydro-9-oxa-3-thiabenzo[f]azulen-6-yl]acetic acid], the ED50 was 0.45 mg/kg in assay [2] (read-out: ED50) and 109 mg/kg at cerebral H1 receptor (setting [3]).
The molecule `O=C(O)CCc1ccc2c(c1)/C(=C/CCN1CCCC1)c1ccsc1CO2` [Compound 59, (Z)-3-{4-[3-(Pyrrolidin-1-yl)propylidene]-4,10-dihydro-9-oxa-1-thiabenzo[f]azulen-6-yl}propionic acid] came in with an IC50 in assay [1] of 36 nM. Further, the figures for the ED50 (in assay [2] (read-out: ED50); on cerebral H1 receptor (setting [3])) were about 0.3 mg/kg and over 200 mg/kg, respectively.
`Cl.O=C(O)Cc1ccc2c(c1)/C(=C/CCN1CCCC1)c1sccc1CO2` [Compound 71, (Z)-{4-[3-(Pyrrolidin-1-yl)propylidene]-4,10-dihydro-9-oxa-3-thiabenzo[f]azulen-6-yl}acetic acid hydrochloride]: the IC50 in assay [1] came to 63.4 nM. Moreover, the ED50 in assay [2] (read-out: ED50) was 0.83 mg/kg; at cerebral H1 receptor (mouse, po, 1 h, read-out: ID50), over 80 mg/kg.
Molecule `CN(C)CC/C=C1\c2cc(CC(=O)O)ccc2OCc2sccc21` [Compound 29, (E)-[4-(3-Dimethylaminopropylidene)-4,10-dihydro-9-oxa-1-thiabenzo[f]azulen-6-yl]acetic acid] had an IC50 in assay [1] of 70.7 nM. Moreover, the ED50 in assay [2] (read-out: ED50) was under 0.1 mg/kg; at cerebral H1 receptor (setting [3]) it was 23.7 mg/kg.
For the molecule `CN1CCN(CC/C=C2\c3cc(CC(=O)O)ccc3OCc3ccsc32)CC1` [Compound 50, (E)-{4-[3-(4-Methylpiperadin-1-yl)propylidene]-4,10-dihydro-9-oxa-3-thiabenzo[f]azulen-6-yl}acetic acid], the IC50 in assay [1] turned out to be 89.1 nM. The ED50 in assay [2] (read-out: ED50) was 1.34 mg/kg; on cerebral H1 receptor (setting [3]) it was over 80 mg/kg.
Take `Cl.O=C(O)Cc1ccc2c(c1)/C(=C\CCN1CCCC1)c1sccc1CO2` [Compound 70, (E)-{4-[3-(Pyrrolidin-1-yl)propylidene]-4,10-dihydro-9-oxa-3-thiabenzo[f]azulen-6-yl}acetic acid hydrochloride]: in assay [1], the 50% inhibitory concentration (IC50) is 14.3 nM. In addition, the ED50 in assay [2] (read-out: ED50) amounted to 0.42 mg/kg; on cerebral H1 receptor (mouse, po, 1 h, read-out: ID50) it was 51.4 mg/kg.
